Values after ≈ are worked out from the molar mass of the structure shown.
Legend:
[1] = system: Psudomonas aeruginosa 104; assay: Antimicrobial activity, agar dilution method (minimal inhibitory concentration); assay type: cell-based
Text: (§1) The antimicrobial activities of the compounds obtained in the above Examples determined by the standard test method (i.e. agar dilution method) as well as those of the following penicillins as disclosed in U.S. Pat. No. 3,433,784 are shown in Table 2: [drawing 59]

[2] = system: Proteus vulgaris HX19; assay: as above; assay type: cell-based
Text: as §1

[3] = system: Proteus miravilis 2425; assay: as above; assay type: cell-based
Text: as §1

[4] = system: Escherichia coli NIHJ; assay: as above; assay type: cell-based
Text: as §1

[5] = system: Staphylococcus aureus 209P; assay: as above; assay type: cell-based
Text: as §1

[6] = system: Klebsiella pneumoniae 602; assay: as above; assay type: cell-based
Text: as §1

[7] = system: Pseudomonas; conditions: prior art penicillins; cited from earlier work

| Compound | MIC [1] | MIC [2] | MIC [3] | MIC [4] | MIC [5] | MIC [6] | anti-Pseudomonas activity [7] |
| --- | --- | --- | --- | --- | --- | --- | --- |
| CC1(C)S[C@@H]2[C@H](NC(=O)[C@H](NC(=O)c3cnccc3O)c3ccc(O)cc3)C(=O)N2[C@H]1C(=O)O [Example 18] | 3.13 µg/mL (≈ 6.43 µM) | 0.2 µg/mL (≈ 0.411 µM) | 25 µg/mL (≈ 51.4 µM) | 12.5 µg/mL (≈ 25.7 µM) | 1.56 µg/mL (≈ 3.21 µM) | 200 µg/mL (≈ 411 µM) | – |
| Cc1ccc2ncc(C(=O)N[C@@H](C(=O)N[C@@H]3C(=O)N4[C@@H]3SC(C)(C)[C@@H]4C(=O)O)c3ccc(O)cc3)c(O)c2n1 [Example 26] | – | 0.05 µg/mL (≈ 0.0906 µM) | – | 1.56 µg/mL (≈ 2.83 µM) | – | – | – |
| CC1(C)S[C@@H]2[C@H](NC(=O)[C@H](NC(=O)c3cnc4c(c3O)CCCC4)c3ccccc3)C(=O)N2[C@H]1C(=O)O [Example 12] | 12.5 µg/mL (≈ 23.8 µM) | 0.05 µg/mL (≈ 0.0953 µM) | 6.25 µg/mL (≈ 11.9 µM) | 12.5 µg/mL (≈ 23.8 µM) | 0.78 µg/mL (≈ 1.49 µM) | 6.25 µg/mL (≈ 11.9 µM) | – |
| CC(=O)Nc1ccc2ncc(C(=O)N[C@@H](C(=O)N[C@@H]3C(=O)N4[C@@H]3SC(C)(C)[C@@H]4C(=O)O)c3ccccc3)c(O)c2c1 [Example 17] | 6.25 µg/mL (≈ 10.8 µM) | 0.1 µg/mL (≈ 0.173 µM) | 3.13 µg/mL (≈ 5.42 µM) | 12.5 µg/mL (≈ 21.6 µM) | 0.78 µg/mL (≈ 1.35 µM) | 3.13 µg/mL (≈ 5.42 µM) | – |
| CN(C)c1ccc2ncc(C(=O)N[C@@H](C(=O)N[C@@H]3C(=O)N4[C@@H]3SC(C)(C)[C@@H]4C(=O)O)c3ccc(O)cc3)c(O)c2n1 [Example 14] | 3.13 µg/mL (≈ 5.39 µM) | 0.1 µg/mL (≈ 0.172 µM) | 1.56 µg/mL (≈ 2.69 µM) | 1.56 µg/mL (≈ 2.69 µM) | 3.13 µg/mL (≈ 5.39 µM) | 3.13 µg/mL (≈ 5.39 µM) | – |
| COc1ccc2ncc(C(=O)N[C@@H](C(=O)N[C@@H]3C(=O)N4[C@@H]3SC(C)(C)[C@@H]4C(=O)O)c3ccc(O)cc3)c(O)c2n1 [Example 27] | – | 0.05 µg/mL (≈ 0.0881 µM) | – | 3.13 µg/mL (≈ 5.51 µM) | – | – | – |
| COc1cc2ncc(C(=O)N[C@@H](C(=O)N[C@@H]3C(=O)N4[C@@H]3SC(C)(C)[C@@H]4C(=O)O)c3ccccc3)c(O)c2cn1 [Example 16] | 6.25 µg/mL (≈ 11.3 µM) | 0.2 µg/mL (≈ 0.363 µM) | – | – | – | 6.25 µg/mL (≈ 11.3 µM) | – |
| CC1(C)S[C@@H]2[C@H](NC(=O)C(C(=O)O)c3ccccc3)C(=O)N2[C@H]1C(=O)O (stereo partly shown) [Carbenicillin, reference compound] | 50 µg/mL (≈ 132 µM) | 0.78 µg/mL (≈ 2.06 µM) | – | – | – | – | not sufficiently strong |
| CC1(C)S[C@@H]2[C@H](NC(=O)[C@H](NC(=O)c3cnc4ccccc4c3O)c3ccc(O)cc3)C(=O)N2[C@H]1C(=O)O [Example 22] | – | 0.2 µg/mL (≈ 0.373 µM) | – | 6.25 µg/mL (≈ 11.6 µM) | – | – | – |
| CC1(C)S[C@@H]2[C@H](NC(=O)C(c3ccccc3)S(=O)(=O)O)C(=O)N2[C@H]1C(=O)O (stereo partly shown) [Sulfocillin] | – | – | – | – | – | – | not sufficiently strong |
| Cc1ccc2c(O)c(C(=O)N[C@@H](C(=O)N[C@@H]3C(=O)N4[C@@H]3SC(C)(C)[C@@H]4C(=O)O)c3ccccc3)cnc2n1 [Example 15] | 3.13 µg/mL (≈ 5.84 µM) | 0.2 µg/mL (≈ 0.373 µM) | 3.13 µg/mL (≈ 5.84 µM) | 3.13 µg/mL (≈ 5.84 µM) | 0.39 µg/mL (≈ 0.728 µM) | 1.56 µg/mL (≈ 2.91 µM) | – |
| CN(C)c1ccc2ncc(C(=O)N[C@@H](C(=O)N[C@@H]3C(=O)N4[C@@H]3SC(C)(C)[C@@H]4C(=O)O)C3=CCC=CC3)c(O)c2n1 [Example 28] | 3.13 µg/mL (≈ 5.52 µM) | 0.05 µg/mL (≈ 0.0882 µM) | 1.56 µg/mL (≈ 2.75 µM) | 1.56 µg/mL (≈ 2.75 µM) | 0.78 µg/mL (≈ 1.38 µM) | 6.25 µg/mL (≈ 11 µM) | – |
| CC1(C)S[C@@H]2[C@H](NC(=O)[C@H](NC(=O)c3cnc4cccnc4c3O)C3=CCC=CC3)C(=O)N2[C@H]1C(=O)O [Example 6] | 1.56 µg/mL (≈ 2.98 µM) | < 0.05 µg/mL | 3.13 µg/mL (≈ 5.98 µM) | 1.56 µg/mL (≈ 2.98 µM) | 0.39 µg/mL (≈ 0.745 µM) | 3.13 µg/mL (≈ 5.98 µM) | – |
| Cc1ccc2c(O)c(C(=O)N[C@@H](C(=O)N[C@@H]3C(=O)N4[C@@H]3SC(C)(C)[C@@H]4C(=O)O)c3ccc(O)cc3)cnc2n1 [Example 19] | – | 0.39 µg/mL (≈ 0.707 µM) | 25 µg/mL (≈ 45.3 µM) | 6.25 µg/mL (≈ 11.3 µM) | 1.56 µg/mL (≈ 2.83 µM) | – | – |
| CC1(C)S[C@@H]2[C@H](NC(=O)[C@H](NC(=O)c3cnc4cccnc4c3O)c3ccc(O)cc3)C(=O)N2[C@H]1C(=O)O (mixture of isomers) [Example 2, D-α-(4-hydroxy-1,5-naphthyridine-3-carbonamido)-p-hydroxyphenylacetamidopenicillanic acid] | 0.78 µg/mL | 0.0125 µg/mL | – | 0.78 µg/mL | 1.56 µg/mL | 6.25 µg/mL | – |
| CC1(C)S[C@@H]2[C@H](NC(=O)[C@H](NC(=O)c3cnc4cn[nH]c4c3O)c3ccccc3)C(=O)N2[C@H]1C(=O)O [Example 20] | 6.25 µg/mL (≈ 12.2 µM) | 0.1 µg/mL (≈ 0.196 µM) | 3.13 µg/mL (≈ 6.13 µM) | 3.13 µg/mL (≈ 6.13 µM) | 0.78 µg/mL (≈ 1.53 µM) | 6.25 µg/mL (≈ 12.2 µM) | – |
| CC1(C)S[C@@H]2[C@H](NC(=O)[C@H](NC(=O)c3nnc4ccccc4c3O)c3ccc(O)cc3)C(=O)N2[C@H]1C(=O)O [Example 23] | – | 0.78 µg/mL (≈ 1.45 µM) | – | – | – | – | – |

Second part, led by results:

| MIC [1] | MIC [2] | MIC [3] | MIC [4] | MIC [5] | MIC [6] | Compound | anti-Pseudomonas activity [7] |
| --- | --- | --- | --- | --- | --- | --- | --- |
| 12.5 µg/mL (≈ 24 µM) | 0.78 µg/mL (≈ 1.5 µM) | 12.5 µg/mL (≈ 24 µM) | 12.5 µg/mL (≈ 24 µM) | 0.78 µg/mL (≈ 1.5 µM) | 12.5 µg/mL (≈ 24 µM) | CC1(C)S[C@@H]2[C@H](NC(=O)[C@H](NC(=O)c3nnc4ccccc4c3O)c3ccccc3)C(=O)N2[C@H]1C(=O)O [Example 4, D-α-(4-hydroxycinnoline-3-carbonamido)benzylpenicillin] | – |
| 6.25 µg/mL (≈ 13.3 µM) | 0.2 µg/mL (≈ 0.425 µM) | 25 µg/mL (≈ 53.1 µM) | 6.25 µg/mL (≈ 13.3 µM) | 0.2 µg/mL (≈ 0.425 µM) | 25 µg/mL (≈ 53.1 µM) | CC1(C)S[C@@H]2[C@H](NC(=O)[C@H](NC(=O)c3ncccc3O)c3ccccc3)C(=O)N2[C@H]1C(=O)O [Example 10] | – |
| 3.13 µg/mL (≈ 6.64 µM) | 0.05 µg/mL (≈ 0.106 µM) | 6.25 µg/mL (≈ 13.3 µM) | 12.5 µg/mL (≈ 26.5 µM) | 0.39 µg/mL (≈ 0.827 µM) | 6.25 µg/mL (≈ 13.3 µM) | CC1(C)S[C@@H]2[C@H](NC(=O)[C@H](NC(=O)c3ccnnc3O)c3ccccc3)C(=O)N2[C@H]1C(=O)O [Example 5, D-α-(3hydroxypyridazine-4-carbonamido)benzylpenicillin] | – |
| 100 µg/mL (≈ 182 µM) | 12.5 µg/mL (≈ 22.8 µM) | 100 µg/mL (≈ 182 µM) | 50 µg/mL (≈ 91.1 µM) | 0.39 µg/mL (≈ 0.711 µM) | 25 µg/mL (≈ 45.6 µM) | CCOc1cnc2ccccc2c1C(=O)NC(C(=O)N[C@@H]1C(=O)N2[C@@H]1SC(C)(C)[C@@H]2C(=O)O)c1ccccc1 (stereo partly shown) [B, reference compound] | – |
| 3.13 µg/mL (≈ 6.42 µM) | 0.05 µg/mL (≈ 0.103 µM) | 6.25 µg/mL (≈ 12.8 µM) | 12.5 µg/mL (≈ 25.6 µM) | 0.39 µg/mL (≈ 0.8 µM) | 25 µg/mL (≈ 51.3 µM) | CC1(C)S[C@@H]2[C@H](NC(=O)[C@H](NC(=O)c3cnc(O)nc3O)c3ccccc3)C(=O)N2[C@H]1C(=O)O [Example 7] | – |
| 6.25 µg/mL (≈ 13.3 µM) | 0.2 µg/mL (≈ 0.425 µM) | 25 µg/mL (≈ 53.1 µM) | 12.5 µg/mL (≈ 26.6 µM) | 0.39 µg/mL (≈ 0.829 µM) | 25 µg/mL (≈ 53.1 µM) | CC1(C)S[C@@H]2[C@H](NC(=O)[C@H](NC(=O)c3cccnc3O)c3ccccc3)C(=O)N2[C@H]1C(=O)O [Example 11] | – |
| 1.56 µg/mL (≈ 2.99 µM) | 0.78 µg/mL (≈ 1.5 µM) | 25 µg/mL (≈ 47.9 µM) | 6.25 µg/mL (≈ 12 µM) | 0.2 µg/mL (≈ 0.383 µM) | 12.5 µg/mL (≈ 24 µM) | CC1(C)S[C@@H]2[C@H](NC(=O)[C@H](NC(=O)c3nc4ccccc4nc3O)c3ccccc3)C(=O)N2[C@H]1C(=O)O [Example 21] | – |
| 1.56 µg/mL (≈ 2.99 µM) | 0.1 µg/mL (≈ 0.192 µM) | 3.13 µg/mL (≈ 6 µM) | 1.56 µg/mL (≈ 2.99 µM) | 0.78 µg/mL (≈ 1.5 µM) | 6.25 µg/mL (≈ 12 µM) | CC1(C)S[C@@H]2[C@H](NC(=O)[C@H](NC(=O)c3cnc4cccnc4c3O)c3ccccc3)C(=O)N2[C@H]1C(=O)O [Example 1, D-α-(4-hydroxy-1,5-naphthyridine-3-carbonamido)benzylpenicillin] | – |
| – | 0.39 µg/mL (≈ 0.858 µM) | – | – | – | – | CC1(C)S[C@@H]2[C@H](NC(=O)C(NC(=O)c3ccccn3)c3ccccc3)C(=O)N2[C@H]1C(=O)O (stereo partly shown) [Compound, reference compound] | – |
| 12.5 µg/mL (≈ 25.8 µM) | 0.2 µg/mL (≈ 0.413 µM) | 12.5 µg/mL (≈ 25.8 µM) | 12.5 µg/mL (≈ 25.8 µM) | 0.39 µg/mL (≈ 0.805 µM) | 25 µg/mL (≈ 51.6 µM) | Cc1ccc(C(=O)N[C@@H](C(=O)N[C@@H]2C(=O)N3[C@@H]2SC(C)(C)[C@@H]3C(=O)O)c2ccccc2)c(O)n1 [Example 13] | – |
| 3.13 µg/mL (≈ 6.65 µM) | 0.1 µg/mL (≈ 0.213 µM) | 6.25 µg/mL (≈ 13.3 µM) | 25 µg/mL (≈ 53.1 µM) | 0.39 µg/mL (≈ 0.829 µM) | 25 µg/mL (≈ 53.1 µM) | CC1(C)S[C@@H]2[C@H](NC(=O)[C@H](NC(=O)c3cnccc3O)c3ccccc3)C(=O)N2[C@H]1C(=O)O [Example 3, D-α-(4-hydroxypyridine-3-carbonamido)benzylpenicillin] | – |
| – | 0.2 µg/mL (≈ 0.384 µM) | – | – | – | – | CC1(C)S[C@@H]2[C@H](NC(=O)[C@H](NC(=O)c3cnc4ccccc4c3O)c3ccccc3)C(=O)N2[C@H]1C(=O)O [Example 9] | – |
| 3.13 µg/mL (≈ 6.64 µM) | 0.05 µg/mL (≈ 0.106 µM) | 12.5 µg/mL (≈ 26.5 µM) | 25 µg/mL (≈ 53 µM) | 0.39 µg/mL (≈ 0.827 µM) | 100 µg/mL (≈ 212 µM) | CC1(C)S[C@@H]2[C@H](NC(=O)[C@H](NC(=O)c3cncnc3O)c3ccccc3)C(=O)N2[C@H]1C(=O)O [Example 8] | – |

— US4005075A, “Penicillins and their preparation” (Sumitomo Chemical Company, Limited, priority 1973, dated 1977)
